According to paper PMC3556479 (Biochemistry, 2013):

What was measured:
Type in all cases: biochemical
[1] = target: T1, orotidine 5′-monophosphate decarboxylase (OMPDC) (Saccharomyces cerevisiae, UniProt P03962, S2H/C155S/A160S/N267D)
T1 sequence (P03962 2-267 S2H/C155S/A160S/N267D): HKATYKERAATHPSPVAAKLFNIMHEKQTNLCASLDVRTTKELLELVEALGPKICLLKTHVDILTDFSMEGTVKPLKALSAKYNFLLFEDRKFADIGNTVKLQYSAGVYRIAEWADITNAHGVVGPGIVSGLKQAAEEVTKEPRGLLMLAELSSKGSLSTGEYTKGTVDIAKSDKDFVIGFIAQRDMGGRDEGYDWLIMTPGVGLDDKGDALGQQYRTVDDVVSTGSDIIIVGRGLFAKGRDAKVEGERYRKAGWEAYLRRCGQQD

[2] = target: T1, orotidine 5′-monophosphate decarboxylase (OMPDC); remark: listed apart in the source
[3] = target: T2, orotidine 5′-monophosphate decarboxylase (OMPDC) (Saccharomyces cerevisiae, UniProt P03962, A160S/C155S/N267D/S2H); assay: activation of FEO decarboxylation by added phosphite, nonlinear fit to eq […]
T2 sequence (P03962 2-267 S2H/C155S/A160S/N267D): T1 sequence (P03962 2-267 S2H/C155S/A160S/N267D)

**Q.** With C[C@H]1O[C@@H](n2c(C(=O)O)c(F)c(=O)[nH]c2=O)[C@H](O)[C@@H]1O [5′-dFO, 5′-Deoxy-5-fluoroorotidine] as the molecule, how does the “HPLC initial-velocity decarboxylation assay, purified yeast OMPDC, with and with” value [1] read?
**A.** The value was 0.078 M^−1 s^−1 (kcat/Km).

**Q.** Which “spectrophotometric decarboxylation assay at 282 nm, purified yeast OMPDC, with a” value [2] does the source give for O=C(O)c1c(F)c(=O)[nH]c(=O)n1[C@@H]1OC[C@@H](O)[C@H]1O [FEO, 1-(β-D-Erythrofuranosyl)-5-fluoroorotic acid] here?
**A.** Its value is 10 M^−1 s^−1 (kcat/Km).

**Q.** With O=[PH](O)O [HPO3^2−, phosphite dianion] as the molecule, how does the Kd [3] read?
**A.** Its Kd is 100 mM.
